Test results: patent US8404710B2, “Phosphodiesterase 10A inhibitor” (Kyorin Pharmaceutical Co., Ltd., priority 2002, dated 2013)
pIC50: −log10 of the molar value.

Assays:
[1] = molecular target: T1, PDE2A3 (Homo sapiens, UniProt O00408); assay: Inhibition of recombinant human PDE2A3 by ibudilast; type: biochemical; conditions: PDE 2A3, substrate cAMP 2 μM
T1 construct: cDNA of full length PDEs, specifically, PDE1A3, PDE2A3; made in house; host or cells: Sf9 insect cells (baculovirus)

[2] = molecular target: T2, PDE7A2 (Homo sapiens, UniProt Q13946); assay: Inhibition of recombinant human PDE7A2 by ibudilast; type: biochemical; conditions: PDE 7A2, substrate cAMP 0.2 μM
T2 construct: cDNA of full length PDEs, specifically, PDE1A3, PDE2A3, PDE3A, PDE3B, PDE4A4, PDE4B2, PDE4C2, PDE4D3, PDE5A1, PDE5A2, PDE5A3, PDE7A2; made in house; host or cells: Sf9 insect cells (baculovirus)
T2 sequence (Q13946 1-456 isoform Q13946-2): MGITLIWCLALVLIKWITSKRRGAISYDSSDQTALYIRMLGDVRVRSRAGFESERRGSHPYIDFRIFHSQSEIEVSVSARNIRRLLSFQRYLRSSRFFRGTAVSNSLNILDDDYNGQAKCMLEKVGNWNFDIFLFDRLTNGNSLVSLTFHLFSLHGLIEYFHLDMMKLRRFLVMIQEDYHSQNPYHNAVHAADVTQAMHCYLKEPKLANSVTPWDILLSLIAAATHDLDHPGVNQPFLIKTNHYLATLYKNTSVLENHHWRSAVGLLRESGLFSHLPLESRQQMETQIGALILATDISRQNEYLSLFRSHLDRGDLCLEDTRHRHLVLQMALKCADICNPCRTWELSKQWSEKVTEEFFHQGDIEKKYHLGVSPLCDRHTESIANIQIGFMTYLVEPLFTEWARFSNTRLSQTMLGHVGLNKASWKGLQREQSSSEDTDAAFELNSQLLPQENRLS

[3] = molecular target: T3, PDE4C2 (Homo sapiens, UniProt Q08493); assay: Inhibition of recombinant human PDE4C2 by ibudilast; type: biochemical; conditions: PDE 4C2, substrate cAMP 2 μM
T3 construct: cDNA of full length PDEs, specifically, PDE1A3, PDE2A3, PDE3A, PDE3B, PDE4A4, PDE4B2, PDE4C2; made in house; host or cells: Sf9 insect cells (baculovirus)

[4] = molecular target: T4, PDE10A1 (Homo sapiens, UniProt Q9Y233); assay: Inhibition of recombinant human PDE10A1 by ibudilast; type: biochemical
T4 construct: cDNA of full length PDEs, specifically, PDE1A3, PDE2A3, PDE3A, PDE3B, PDE4A4, PDE4B2, PDE4C2, PDE4D3, PDE5A1, PDE5A2, PDE5A3, PDE7A2, PDE8A1, PDE9A2, PDE10A1; made in house; host or cells: Sf9 insect cells (baculovirus)
T4 sequence (Q9Y233 1-779 isoform Q9Y233-1): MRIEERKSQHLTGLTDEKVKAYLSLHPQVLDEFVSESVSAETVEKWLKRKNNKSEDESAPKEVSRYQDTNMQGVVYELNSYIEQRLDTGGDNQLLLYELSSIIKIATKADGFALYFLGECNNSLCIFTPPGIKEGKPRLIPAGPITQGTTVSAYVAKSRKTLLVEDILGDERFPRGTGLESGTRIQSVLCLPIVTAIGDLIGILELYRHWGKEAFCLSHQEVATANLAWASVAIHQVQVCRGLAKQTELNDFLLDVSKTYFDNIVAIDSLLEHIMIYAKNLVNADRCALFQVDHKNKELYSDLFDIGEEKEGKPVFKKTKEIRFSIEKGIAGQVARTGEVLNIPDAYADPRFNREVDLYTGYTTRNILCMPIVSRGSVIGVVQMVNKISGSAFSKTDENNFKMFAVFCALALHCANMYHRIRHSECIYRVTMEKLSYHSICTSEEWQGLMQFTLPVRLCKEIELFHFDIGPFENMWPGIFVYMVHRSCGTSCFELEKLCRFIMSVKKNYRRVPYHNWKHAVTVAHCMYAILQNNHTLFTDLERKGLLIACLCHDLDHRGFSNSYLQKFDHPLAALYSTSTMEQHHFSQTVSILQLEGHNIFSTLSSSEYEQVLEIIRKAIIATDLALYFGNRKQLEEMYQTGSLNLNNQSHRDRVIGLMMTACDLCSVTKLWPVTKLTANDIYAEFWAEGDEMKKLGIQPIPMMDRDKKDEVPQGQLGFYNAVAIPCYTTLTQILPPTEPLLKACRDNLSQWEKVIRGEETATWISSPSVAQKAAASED

[5] = molecular target: T5, PDE1A3 (Homo sapiens, UniProt P54750); assay: Inhibition of recombinant human PDE1A3 by ibudilast; type: biochemical
T5 construct: cDNA of full length PDEs, specifically, PDE1A3; made in house; host or cells: Sf9 insect cells (baculovirus)
T5 sequence (P54750 whole entry): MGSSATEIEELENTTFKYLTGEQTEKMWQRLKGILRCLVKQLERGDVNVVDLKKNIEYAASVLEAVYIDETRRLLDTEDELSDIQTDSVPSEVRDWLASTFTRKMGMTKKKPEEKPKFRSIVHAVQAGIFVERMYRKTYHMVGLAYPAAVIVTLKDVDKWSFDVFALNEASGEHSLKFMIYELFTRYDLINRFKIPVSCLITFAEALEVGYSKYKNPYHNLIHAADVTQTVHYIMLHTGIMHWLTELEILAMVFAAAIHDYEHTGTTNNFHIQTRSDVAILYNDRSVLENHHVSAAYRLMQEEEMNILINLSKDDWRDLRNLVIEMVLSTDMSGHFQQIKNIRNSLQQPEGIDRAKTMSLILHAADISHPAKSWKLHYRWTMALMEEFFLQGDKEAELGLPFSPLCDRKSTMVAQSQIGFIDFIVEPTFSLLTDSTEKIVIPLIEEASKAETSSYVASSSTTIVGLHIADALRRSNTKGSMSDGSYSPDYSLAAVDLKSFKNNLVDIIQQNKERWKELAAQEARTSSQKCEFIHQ

[6] = molecular target: T6, PDE4D3 (Homo sapiens, UniProt Q08499); assay: Inhibition of recombinant human PDE4D3 by ibudilast; type: biochemical; conditions: PDE 4D3, substrate cAMP 2 μM
T6 construct: cDNA of full length PDEs, specifically, PDE1A3, PDE2A3, PDE3A, PDE3B, PDE4A4, PDE4B2, PDE4C2, PDE4D3; made in house; host or cells: Sf9 insect cells (baculovirus)

[7] = molecular target: T7, PDE9A2 (Homo sapiens, UniProt O76083); assay: Inhibition of recombinant human PDE9A2 by ibudilast; type: biochemical; conditions: PDE 9A2, substrate cGMP 0.2 μM
T7 construct: cDNA of full length PDEs, specifically, PDE1A3, PDE2A3, PDE3A, PDE3B, PDE4A4, PDE4B2, PDE4C2, PDE4D3, PDE5A1, PDE5A2, PDE5A3, PDE7A2, PDE8A1, PDE9A2; made in house; host or cells: Sf9 insect cells (baculovirus)
T7 sequence (O76083 1-533 isoform O76083-2): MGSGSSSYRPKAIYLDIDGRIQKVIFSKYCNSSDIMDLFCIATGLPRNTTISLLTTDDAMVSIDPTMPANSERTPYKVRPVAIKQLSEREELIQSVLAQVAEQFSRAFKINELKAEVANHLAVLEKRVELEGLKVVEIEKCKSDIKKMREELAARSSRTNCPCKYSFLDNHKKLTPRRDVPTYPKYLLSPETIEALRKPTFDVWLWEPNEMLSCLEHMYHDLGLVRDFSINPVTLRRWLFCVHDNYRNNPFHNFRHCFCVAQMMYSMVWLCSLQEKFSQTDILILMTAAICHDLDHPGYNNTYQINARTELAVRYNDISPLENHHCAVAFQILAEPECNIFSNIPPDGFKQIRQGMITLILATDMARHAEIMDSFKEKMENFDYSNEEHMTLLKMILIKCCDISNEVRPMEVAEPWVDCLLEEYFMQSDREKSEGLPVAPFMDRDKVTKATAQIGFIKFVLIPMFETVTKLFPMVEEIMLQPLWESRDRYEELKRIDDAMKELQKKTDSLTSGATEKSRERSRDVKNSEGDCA

[8] = molecular target: T8, PDE3B (Homo sapiens, UniProt Q13370); assay: Inhibition of recombinant human PDE3B by ibudilast (Sf9 cell suspension); type: biochemical; conditions: PDE 3B, substrate cAMP 2 μM
T8 construct: cDNA of full length PDEs, specifically, PDE1A3, PDE2A3, PDE3A, PDE3B; made in house; host or cells: Sf9 insect cells (baculovirus); unpurified cell suspension in RIPA buffer
T8 sequence (Q13370 whole entry): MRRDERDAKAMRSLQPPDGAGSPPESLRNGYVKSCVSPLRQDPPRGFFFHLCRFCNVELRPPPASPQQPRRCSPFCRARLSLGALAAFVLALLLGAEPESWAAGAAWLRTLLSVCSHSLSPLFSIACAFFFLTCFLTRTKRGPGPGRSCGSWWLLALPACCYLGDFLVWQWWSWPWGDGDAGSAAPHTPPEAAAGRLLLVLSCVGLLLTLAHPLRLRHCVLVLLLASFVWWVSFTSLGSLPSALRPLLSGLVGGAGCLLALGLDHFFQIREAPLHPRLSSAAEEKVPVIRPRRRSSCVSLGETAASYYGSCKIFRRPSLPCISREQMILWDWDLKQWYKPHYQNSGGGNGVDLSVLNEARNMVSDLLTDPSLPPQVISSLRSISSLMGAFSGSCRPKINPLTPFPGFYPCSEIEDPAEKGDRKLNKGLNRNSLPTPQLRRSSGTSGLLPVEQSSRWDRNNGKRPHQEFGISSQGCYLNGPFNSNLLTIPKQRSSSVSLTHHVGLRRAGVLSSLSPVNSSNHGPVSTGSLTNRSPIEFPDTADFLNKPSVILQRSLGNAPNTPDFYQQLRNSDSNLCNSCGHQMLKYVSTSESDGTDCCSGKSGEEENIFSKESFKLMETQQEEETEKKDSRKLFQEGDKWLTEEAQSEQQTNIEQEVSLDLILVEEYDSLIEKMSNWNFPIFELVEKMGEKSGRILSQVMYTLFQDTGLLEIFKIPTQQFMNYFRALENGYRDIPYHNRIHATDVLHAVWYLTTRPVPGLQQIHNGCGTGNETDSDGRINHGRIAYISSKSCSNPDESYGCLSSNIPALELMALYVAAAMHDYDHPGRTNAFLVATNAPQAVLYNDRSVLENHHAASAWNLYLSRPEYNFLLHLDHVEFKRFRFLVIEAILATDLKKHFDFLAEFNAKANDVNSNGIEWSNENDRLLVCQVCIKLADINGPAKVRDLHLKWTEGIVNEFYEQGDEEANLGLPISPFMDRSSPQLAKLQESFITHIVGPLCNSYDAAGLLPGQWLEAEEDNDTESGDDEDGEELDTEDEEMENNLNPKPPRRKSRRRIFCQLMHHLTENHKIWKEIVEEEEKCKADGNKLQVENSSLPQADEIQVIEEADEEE

[9] = molecular target: PDE4A4 (Homo sapiens, UniProt P27815); assay: Inhibition of recombinant human PDE4A4 by ibudilast; type: biochemical; conditions: PDE 4A4, substrate cAMP 2 μM
[10] = molecular target: T9, PDE8A1 (Homo sapiens, UniProt O60658); assay: Inhibition of recombinant human PDE8A1 by ibudilast; type: biochemical; conditions: PDE 8A1, substrate cAMP 0.2 μM
T9 construct: cDNA of full length PDEs, specifically, PDE1A3, PDE2A3, PDE3A, PDE3B, PDE4A4, PDE4B2, PDE4C2, PDE4D3, PDE5A1, PDE5A2, PDE5A3, PDE7A2, PDE8A1; made in house; host or cells: Sf9 insect cells (baculovirus)

[11] = molecular target: T10, PDE11A1 (Homo sapiens, UniProt Q9HCR9); assay: Inhibition of recombinant human PDE11A1 by ibudilast; type: biochemical
T10 construct: cDNA of full length PDEs, specifically, PDE1A3, PDE2A3, PDE3A, PDE3B, PDE4A4, PDE4B2, PDE4C2, PDE4D3, PDE5A1, PDE5A2, PDE5A3, PDE7A2, PDE8A1, PDE9A2, PDE10A1, and PDE11A1; made in house; host or cells: Sf9 insect cells (baculovirus)
T10 sequence (Q9HCR9 445-933): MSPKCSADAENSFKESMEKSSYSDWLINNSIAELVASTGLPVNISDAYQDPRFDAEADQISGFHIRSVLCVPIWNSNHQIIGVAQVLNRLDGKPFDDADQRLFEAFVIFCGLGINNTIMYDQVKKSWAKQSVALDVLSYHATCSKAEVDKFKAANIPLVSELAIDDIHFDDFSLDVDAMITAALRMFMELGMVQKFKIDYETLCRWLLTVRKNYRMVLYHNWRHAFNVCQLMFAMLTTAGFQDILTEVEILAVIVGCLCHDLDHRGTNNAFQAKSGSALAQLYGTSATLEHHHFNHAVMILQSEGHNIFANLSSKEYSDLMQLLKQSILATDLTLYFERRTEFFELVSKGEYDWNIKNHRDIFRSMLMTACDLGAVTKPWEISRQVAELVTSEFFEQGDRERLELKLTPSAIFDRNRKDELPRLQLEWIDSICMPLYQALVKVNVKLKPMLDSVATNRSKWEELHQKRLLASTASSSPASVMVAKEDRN

[12] = molecular target: PDE10A (Homo sapiens, UniProt Q9Y233); conditions: human PDE10A gene product; cited from earlier work
Chain of PDE10A (Q9Y233 whole entry): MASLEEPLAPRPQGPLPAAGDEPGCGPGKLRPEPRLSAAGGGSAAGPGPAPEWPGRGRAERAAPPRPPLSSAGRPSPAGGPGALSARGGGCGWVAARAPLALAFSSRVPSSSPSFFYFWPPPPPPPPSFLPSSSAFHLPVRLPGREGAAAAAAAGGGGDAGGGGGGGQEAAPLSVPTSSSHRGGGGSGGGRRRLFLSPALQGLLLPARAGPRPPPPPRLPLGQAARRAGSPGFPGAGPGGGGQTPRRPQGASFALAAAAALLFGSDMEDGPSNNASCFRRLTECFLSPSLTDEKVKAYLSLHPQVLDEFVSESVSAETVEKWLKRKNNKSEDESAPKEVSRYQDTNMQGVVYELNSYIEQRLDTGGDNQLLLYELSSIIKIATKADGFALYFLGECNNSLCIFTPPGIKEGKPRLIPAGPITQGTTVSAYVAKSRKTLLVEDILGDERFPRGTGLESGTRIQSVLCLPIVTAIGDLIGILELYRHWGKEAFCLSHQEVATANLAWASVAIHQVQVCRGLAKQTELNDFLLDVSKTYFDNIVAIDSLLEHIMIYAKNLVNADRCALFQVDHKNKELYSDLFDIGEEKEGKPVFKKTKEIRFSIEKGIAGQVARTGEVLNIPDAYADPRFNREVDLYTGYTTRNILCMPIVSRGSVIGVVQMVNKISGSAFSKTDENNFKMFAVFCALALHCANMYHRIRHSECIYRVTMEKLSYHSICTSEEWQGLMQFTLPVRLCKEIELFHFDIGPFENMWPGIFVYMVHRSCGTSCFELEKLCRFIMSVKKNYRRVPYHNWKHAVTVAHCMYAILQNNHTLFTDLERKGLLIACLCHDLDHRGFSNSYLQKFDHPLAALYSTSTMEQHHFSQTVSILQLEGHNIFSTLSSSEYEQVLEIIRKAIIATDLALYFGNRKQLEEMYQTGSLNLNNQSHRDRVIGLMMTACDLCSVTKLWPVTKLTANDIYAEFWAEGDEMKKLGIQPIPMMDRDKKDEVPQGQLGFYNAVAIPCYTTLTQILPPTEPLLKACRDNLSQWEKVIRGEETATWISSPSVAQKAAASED

| Compound | pIC50 [1] | pIC50 [2] | pIC50 [3] | pIC50 ([4]; PDE 10A1, substrate cAMP 0.2 μM) | pIC50 ([4]; PDE 10A1, substrate cGMP 2 μM) | inhibition of PDE10A1 compared with other PDEs ([4]; in vitro, recombinant human PDE) | pIC50 ([5]; PDE 1A3, substrate cAMP 2 μM) | pIC50 ([5]; PDE 1A3, substrate cGMP 2 μM) | pIC50 [6] | pIC50 [7] | pIC50 [8] | pIC50 [9] | pIC50 [10] | pIC50 ([11]; PDE 11A1, substrate cAMP 2 μM) | pIC50 ([11]; PDE 11A1, substrate cGMP 0.2 μM) | inhibition of PDE10A [12] |
| --- | --- | --- | --- | --- | --- | --- | --- | --- | --- | --- | --- | --- | --- | --- | --- | --- |
| CC(C)C(=O)c1c(C(C)C)nn2ccccc12 [ibudilast, 3-isobutyryl-2-isopropyl pyrazolo[1,5-a]pyridine] | 4.11 | 3.94 | 4.96 | 5.52 | 6.00 | particularly strong inhibition | 4.40 | 3.92 | 5.22 | < 3.40 | 3.58 | 5.22 | 4.31 | 4.77 | 4.44 |  |
| OCCN(CCO)c1nc(N2CCCCC2)c2nc(N(CCO)CCO)nc(N3CCCCC3)c2n1 [dipyridamole] |  |  |  |  |  |  |  |  |  |  |  |  |  |  |  | inhibited |
